Assay results: the NIST ThermoML archive (doi:10.1016/j.tca.2011.02.002)

What was measured:
[1] = excess molar enthalpy (molar enthalpy of mixing); xn = mol fraction of the nth substance listed; conditions: 308.15 K, 101 kPa, Liquid, 2-drop calorimeter (CSC 4600_
[2] = xn = mol fraction of the nth substance listed; conditions: 101 kPa, Liquid; for mass density: Vibrating tube method

Cc1ccccn1 [2-methylpyridine] + C1CCOCC1
[1]
Conditions | excess molar enthalpy [kcal/mol]
x2 = 0.0511 | 0.00394
x2 = 0.1102 | 0.00915
x2 = 0.1773 | 0.016
x2 = 0.2121 | 0.0196
x2 = 0.2683 | 0.0253
x2 = 0.3182 | 0.03
x2 = 0.3905 | 0.0356
x2 = 0.4304 | 0.0391
x2 = 0.4822 | 0.0413
x2 = 0.5216 | 0.0437
x2 = 0.5755 | 0.0442
x2 = 0.6213 | 0.0442
x2 = 0.6786 | 0.0428
x2 = 0.7288 | 0.0409
x2 = 0.7754 | 0.0373
x2 = 0.8216 | 0.0323
x2 = 0.8852 | 0.0232
x2 = 0.9217 | 0.0168

[2]
Conditions | mass density, 298.15 K [kg/m3] | mass density, 303.15 K [kg/m3] | mass density, 308.15 K [kg/m3] | speed of sound, 298.15 K [m/s] | speed of sound, 303.15 K [m/s] | speed of sound, 308.15 K [m/s]
x2 = 0 | 939.802 | 935.117 | 930.414 | 1380.1 | 1361 | 1339.9
x2 = 0.0367 | 937.731 | 933.031 | 928.307 | 1376.6 | 1357.6 | 1336.4
x2 = 0.0731 | 935.665 | 930.947 | 926.208 | 1373 | 1354.1 | 1332.8
x2 = 0.1274 | 932.552 | 927.811 | 923.053 | 1367.7 | 1348.5 | 1327.2
x2 = 0.1751 | 929.795 | 925.036 | 920.257 | 1363 | 1343.5 | 1322
x2 = 0.2373 | 926.162 | 921.378 | 916.581 | 1356.6 | 1336.7 | 1315.2
x2 = 0.2752 | 923.926 | 919.13 | 914.323 | 1352.6 | 1332.5 | 1310.9
x2 = 0.3262 | 920.901 | 916.081 | 911.259 | 1347.2 | 1326.7 | 1305.1
x2 = 0.3817 | 917.578 | 912.735 | 907.895 | 1341.2 | 1320.4 | 1298.7
x2 = 0.4248 | 914.974 | 910.121 | 905.265 | 1336.5 | 1315.4 | 1293.7
x2 = 0.4916 | 910.915 | 906.032 | 901.153 | 1328.9 | 1307.5 | 1285.8
x2 = 0.5525 | 907.178 | 902.268 | 897.366 | 1322 | 1300.4 | 1278.5
x2 = 0.6147 | 903.336 | 898.401 | 893.468 | 1314.9 | 1293 | 1271.1
x2 = 0.6674 | 900.064 | 895.101 | 890.14 | 1308.7 | 1286.8 | 1264.8
x2 = 0.7018 | 897.916 | 892.937 | 887.961 | 1304.7 | 1282.7 | 1260.7
x2 = 0.7736 | 893.419 | 888.402 | 883.383 | 1296.3 | 1274.2 | 1252
x2 = 0.8219 | 890.381 | 885.337 | 880.292 | 1290.6 | 1268.4 | 1246.2
x2 = 0.8673 | 887.518 | 882.452 | 877.377 | 1285.3 | 1262.9 | 1240.7
x2 = 0.9428 | 882.751 | 877.641 | 872.516 | 1276.5 | 1253.8 | 1231.5
